What was measured:
[1] = PXRD form stability of uncapped samples in a stability chamber; format: physicochemical
Experimental: Cabozantinib acesulfamate Form APO-I can be characterized by a PXRD diffractogram comprising, among other peaks, characteristic peaks, expressed in degrees 2θ (±0.2°), at 9.5°, 11.2° and 19.7°. Preferably, the PXRD diffractogram further comprises at least three peaks, expressed in degrees 2θ (±0.2°), selected from the group consisting of 9.1°, 10.2°, 12.7°, 15.9°, 17.4°, and 18.1°. More preferably, the PXRD diffractogram further comprises peaks, expressed in degrees 2θ (±0.2°), at 9.1°, 10.2°, 12.7°, 15.9°, 17.4°, and 18.1°.
PXRD diffractograms were recorded on a Bruker D8 Discover powder X-ray diffractometer (Bruker AXS LLC, Karlsruhe, Germany). The sample holder was oscillated along x and y axes during the measurement. The generator was a Incoatec Microfocus Source (IμS) Cu tube (λ=1.54060 Å) with a voltage of 50 kV and current of 1.00 mA, using a divergence slit of 0.1 mm and collimator of 2.0 mm. For each sample, one frame was collected using a still scan with a PILATUS3 R 100K-A detector at the distance of 294.2 mm from the sample. Raw data were evaluated using the program DIFFRAC.EVA (Bruker AXS LLC, Karlsruhe, Germany).

[2] = cited from earlier work
[3] = pH-dependent; at a pH>3; cited from earlier work

Row | form stability ([1]; high temperature and high humidity) | Structure (SMILES) | change in the crystalline form (PXRD) ([1]; uncapped samples, 40° C./75% RH stability chamber, at least 4 weeks) | permeability [2] | aqueous solubility [3]
1 | form stability | CC1=CC(=O)NS(=O)(=O)O1.COc1cc2nccc(Oc3ccc(NC(=O)C4(C(=O)Nc5ccc(F)cc5)CC4)cc3)c2cc1OC [cabozantinib acesulfamate Form APO-I, Cabozantinib Acesulfamate Form APO-I] | no change in the crystalline form occurred | – | –
2 | – | COc1cc2nccc(Oc3ccc(NC(=O)C4(C(=O)Nc5ccc(F)cc5)CC4)cc3)c2cc1OC [cabozantinib, N-(4-(6,7-dimethoxyquinolin-4-yloxy)phenyl)-N′-(4-fluorophenyl)cyclopropane-1,1-dicarboxamide] | – | high permeability | very low solubility
